In patent US9999619B2, “Piperidin-4-yl azetidine derivatives as JAK1 inhibitors” (Incyte Corporation, priority 2010, dated 2018):

Experiments:
Type in all cases: biochemical
[1] = target: human JAK1 (a.a. 837-1142); experiment: In vitro JAK kinase assay (HTRF, phosphorylation of a biotinylated peptide), JAK1; conditions: ratio of JAK2 IC50 to JAK1 IC50, measured at 1 mM ATP
In short: (§1)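 N-terminally His-tagged catalytic domains, baculovirus-expressed in insect cells and purified, were used as enzyme. Reactions ran 1 hr at room temperature and were stopped with a mix of 45 mM EDTA, 300 nM SA-APC and 6 nM Eu-Py20. The HTRF signal was read after 40 min of antibody binding.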

[2] = target: human JAK1 (a.a. 837-1142) (Homo sapiens, UniProt P23458); experiment: as above; conditions: measured at 1 mM ATP
In short: as §1

Jak2 (a.a. 828-1132) = Jak2 (a.a. 828-1132) (Homo sapiens (Human), UniProt O60674); experiment: In vitro JAK kinase assay (HTRF, phosphorylation of a biotinylated peptide), JAK2; conditions: measured at 1 mM ATP
In short: as §1

Jak2 (a.a. 828-1132), sequence (O60674 828-1132): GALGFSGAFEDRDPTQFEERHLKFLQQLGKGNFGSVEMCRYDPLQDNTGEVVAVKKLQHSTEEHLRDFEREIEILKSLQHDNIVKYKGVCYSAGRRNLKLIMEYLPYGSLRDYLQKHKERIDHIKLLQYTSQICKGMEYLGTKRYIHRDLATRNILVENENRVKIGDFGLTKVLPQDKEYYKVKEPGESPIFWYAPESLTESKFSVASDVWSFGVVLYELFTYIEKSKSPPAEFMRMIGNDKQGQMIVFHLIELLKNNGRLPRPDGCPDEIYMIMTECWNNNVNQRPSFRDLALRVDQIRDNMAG

| Compound | IC50 Ratio JAK2/JAK1 [1] | IC50 [2] [nM] | IC50 (Jak2 (a.a. 828-1132)) [nM] |
| --- | --- | --- | --- |
| N#CCC1(n2cc(-c3ncnc4[nH]ccc34)cn2)CN(C2CCN(C(=O)c3cc4ccccc4s3)CC2)C1 [Example 90, {1-[1-(1-benzothien-2-ylcarbonyl)piperidin-4-yl]-3-[4-(7H-pyrrolo[2,3-d]pyrimidin-4-yl)-1H-pyrazol-1-yl]azetidin-3-yl}acetonitrile] | 1.5 | ≤ 5 | ≤ 10 |
| N#CCC1(n2cc(-c3ncnc4[nH]ccc34)cn2)CN(C2CCN(Cc3cc(Br)nc(Br)c3)CC2)C1 [Example 225, {1-{1-[(2,6-dibromopyridin-4-yl)methyl]piperidin-4-yl}-3-[4-(7H-pyrrolo[2,3-d]pyrimidin-4-yl)-1H-pyrazol-1-yl]azetidin-3-yl}acetonitrile] | 3.8 | ≤ 5 | 10 to 50 |
| CN(C)c1ccc(CN2CCC(N3CC(CC#N)(n4cc(-c5ncnc6[nH]ccc56)cn4)C3)CC2)c(F)c1C#N [Example 209, 3-[(4-{3-(Cyanomethyl)-3-[4-(7H-pyrrolo[2,3-d]pyrimidin-4-yl)-1H-pyrazol-1-yl]azetidin-1-yl}piperidin-1-yl)methyl]-6-(dimethylamino)-2-fluorobenzonitrile] | 19.0 | ≤ 5 | 10 to 50 |
| N#CCC1(n2cc(-c3ncnc4[nH]ccc34)cn2)CN(C2CCN(C(=O)c3ccc(O)c(Cl)c3)CC2)C1 [Example 84, {1-[1-(3-chloro-4-hydroxybenzoyl)piperidin-4-yl]-3-[4-(7H-pyrrolo[2,3-d]pyrimidin-4-yl)-1H-pyrazol-1-yl]azetidin-3-yl}acetonitrile] | 6.5 | ≤ 5 | 10 to 50 |
| COc1ccc(OC)c(NC(=O)N2CCC(N3CC(CC#N)(n4cc(-c5ncnc6[nH]ccc56)cn4)C3)CC2)c1 [Example 186, 4-{3-(cyanomethyl)-3-[4-(7H-pyrrolo[2,3-d]pyrimidin-4-yl)-1H-pyrazol-1-yl]azetidin-1-yl}-N-(2,5-dimethoxyphenyl)piperidine-1-carboxamide] | 5.5 | ≤ 5 | 10 to 50 |
| N#CCC1(n2cc(-c3ncnc4[nH]ccc34)cn2)CN(C2CCN(C(=O)c3ccc(-c4ccc(C#N)cc4)c(F)c3)CC2)C1 [Example 118, 4′-[(4-{3-(cyanomethyl)-3-[4-(7H-pyrrolo[2,3-d]pyrimidin-4-yl)-1H-pyrazol-1-yl]azetidin-1-yl}piperidin-1-yl)carbonyl]-2′-fluorobiphenyl-4-carbonitrile] | 21.5 | ≤ 5 | 10 to 50 |
| COc1ccsc1C(=O)N1CCC(N2CC(CC#N)(n3cc(-c4ncnc5[nH]ccc45)cn3)C2)CC1 [Example 81, {1-{1-[(3-methoxy-2-thienyl)carbonyl]piperidin-4-yl}-3-[4-(7H-pyrrolo[2,3-d]pyrimidin-4-yl)-1H-pyrazol-1-yl]azetidin-3-yl}acetonitrile] | 4.2 | ≤ 5 | ≤ 10 |
| N#CCC1(n2ccc(-c3ncnc4[nH]ccc34)c2)CN(C2CCN(C(=O)c3cccc(C#N)c3)CC2)C1 [Example 262, 3-[(4-{3-(cyanomethyl)-3-[3-(7H-pyrrolo[2,3-d]pyrimidin-4-yl)-1H-pyrrol-1-yl]azetidin-1-yl}piperidin-1-yl)carbonyl]benzonitrile] | 7.4 | 5 to 20 | 50 to 100 |
| N#CCC1(n2cc(-c3c(F)cnc4[nH]ccc34)cn2)CN(C2CCN(C(=O)c3cc(C(F)(F)F)ncc3Cl)CC2)C1 [Example 326, {1-{1-[5-chloro-2-(trifluoromethyl)isonicotinoyl]piperidin-4-yl}-3-[4-(5-fluoro-1H-pyrrolo[2,3-b]pyridin-4-yl)-1H-pyrazol-1-yl]azetidin-3-yl}acetonitrile] | 1.7 | 5 to 20 | 10 to 50 |
| CN(C)c1c(F)c(F)c(C(=O)N2CCC(N3CC(CC#N)(n4cc(-c5ncnc6[nH]ccc56)cn4)C3)CC2)c(F)c1F [Example 60, {1-{1-[4-(dimethylamino)-2,3,5,6-tetrafluorobenzoyl]piperidin-4-yl}-3-[4-(7H-pyrrolo[2,3-d]pyrimidin-4-yl)-1H-pyrazol-1-yl]azetidin-3-yl}acetonitrile] | 1.8 | ≤ 5 | ≤ 10 |
| COc1c(F)c(F)cc(C(=O)N2CCC(N3CC(CC#N)(n4cc(-c5ncnc6[nH]ccc56)cn4)C3)CC2)c1F [Example 32, {3-[4-(7H-pyrrolo[2,3-d]pyrimidin-4-yl)-1H-pyrazol-1-yl]-1-[1-(2,4,5-trifluoro-3-methoxybenzoyl)piperidin-4-yl]azetidin-3-yl}acetonitrile] | 4.4 | ≤ 5 | 10 to 50 |
| COc1cc(C(=O)N2CCC(N3CC(CC#N)(n4cc(-c5ncnc6[nH]ccc56)cn4)C3)CC2)ccc1F [Example 26, {1-[1-(4-fluoro-3-methoxybenzoyl)piperidin-4-yl]-3-[4-(7H-pyrrolo[2,3-d]pyrimidin-4-yl)-1H-pyrazol-1-yl]azetidin-3-yl}acetonitrile] | 3.3 | ≤ 5 | ≤ 10 |
| COc1ccccc1NC(=O)N1CCC(N2CC(CC#N)(n3cc(-c4ncnc5[nH]ccc45)cn3)C2)CC1 [Example 180, 4-{3-(cyanomethyl)-3-[4-(7H-pyrrolo[2,3-d]pyrimidin-4-yl)-1H-pyrazol-1-yl]azetidin-1-yl}-N-(2-methoxyphenyl)piperidine-1-carboxamide] | 4.0 | ≤ 5 | 10 to 50 |
| N#CCC1(n2cc(-c3ncnc4[nH]ccc34)cn2)CN(C2CCN(C(=O)c3cc(C(F)(F)F)ncc3Cl)CC2)C1 [Example 342, {1-{1-[5-Chloro-2-(trifluoromethyl)isonicotinoyl]piperidin-4-yl}-3-[4-(7H-pyrrolo[2,3-d]pyrimidin-4-yl)-1H-pyrazol-1-yl]azetidin-3-yl}acetonitrile] | 5.7 | ≤ 5 | 10 to 50 |
| CC1(N2CC(CC#N)(n3cc(-c4ncnc5[nH]ccc45)cn3)C2)CCN(C(=O)c2cccc(F)c2)CC1 [Example 152, {1-[1-(3-Fluorobenzoyl)-4-methylpiperidin-4-yl]-3-[4-(7H-pyrrolo[2,3-d]pyrimidin-4-yl)-1H-pyrazol-1-yl]azetidin-3-yl}acetonitrile] | 4.0 | 5 to 20 | 10 to 50 |
| N#CCC1(n2cc(-c3ncnc4[nH]ccc34)cn2)CN(C2CC3CCC(C2)N3C(=O)c2ccc(C#N)c(F)c2)C1 (stereo not drawn) [Example 140, 4-[(3-{3-(cyanomethyl)-3-[4-(7H-pyrrolo[2,3-d]pyrimidin-4-yl)-1H-pyrazol-1-yl]azetidin-1-yl}-8-azabicyclo[3.2.1]oct-8-yl)carbonyl]-2-fluorobenzonitrile] | 5.4 | 5 to 20 | 10 to 50 |
| N#CCC1(n2cc(-c3ncnc4[nH]ccc34)cn2)CN(C2CCN(C(=O)Nc3cc(F)ccc3F)CC2)C1 [Example 174, 4-{3-(cyanomethyl)-3-[4-(7H-pyrrolo[2,3-d]pyrimidin-4-yl)-1H-pyrazol-1-yl]azetidin-1-yl}-N-(2,5-difluorophenyl)piperidine-1-carboxamide] | 7.1 | ≤ 5 | ≤ 10 |
| COc1c(C(=O)N2CCC(N3CC(CC#N)(n4cc(-c5ncnc6[nH]ccc56)cn4)C3)CC2)csc1Cl [Example 74, {1-{1-[(5-chloro-4-methoxy-3-thienyl)carbonyl]piperidin-4-yl}-3-[4-(7H-pyrrolo[2,3-d]pyrimidin-4-yl)-1H-pyrazol-1-yl]azetidin-3-yl}acetonitrile] | 3.8 | ≤ 5 | 10 to 50 |
| N#CCC1(n2cc(-c3ncnc4[nH]ccc34)cn2)CN(C2CCN(C(=O)Nc3ccc(F)cc3Cl)CC2)C1 [Example 162, N-(2-chloro-4-fluorophenyl)-4-{3-(cyanomethyl)-3-[4-(7H-pyrrolo[2,3-d]pyrimidin-4-yl)-1H-pyrazol-1-yl]azetidin-1-yl}piperidine-1-carboxamide] | 13.6 | ≤ 5 | 10 to 50 |
| CCNCc1cc(C(=O)N2CCC(N3CC(CC#N)(n4cc(-c5ncnc6[nH]ccc56)cn4)C3)CC2)nc(C(F)(F)F)n1 [Example 383, {1-(1-{[6-[(ethylamino)methyl]-2-(trifluoromethyl)pyrimidin-4-yl]carbonyl}piperidin-4-yl)-3-[4-(7H-pyrrolo[2,3-d]pyrimidin-4-yl)-1H-pyrazol-1-yl]azetidin-3-yl}acetonitrile] | 30.5 | ≤ 5 | 10 to 50 |
| CC(C)NCc1cc(C(=O)N2CCC(N3CC(CC#N)(n4cc(-c5ncnc6[nH]ccc56)cn4)C3)CC2)nc(C(F)(F)F)n1 [Example 382, {1-(1-{[6-[(isopropylamino)methyl]-2-(trifluoromethyl)pyrimidin-4-yl]carbonyl}piperidin-4-yl)-3-[4-(7H-pyrrolo[2,3-d]pyrimidin-4-yl)-1H-pyrazol-1-yl]azetidin-3-yl}acetonitrile] | 26.7 | ≤ 5 | 10 to 50 |
| CC1(COC(=O)N2CCC(N3CC(CC#N)(n4cc(-c5ncnc6[nH]ccc56)cn4)C3)CC2)CC1 [Example 392, (1-methylcyclopropyl)methyl 4-{3-(cyanomethyl)-3-[4-(7H-pyrrolo[2,3-d]pyrimidin-4-yl)-1H-pyrazol-1-yl]azetidin-1-yl}piperidine-1-carboxylate] | 5.6 | 5 to 20 | 10 to 50 |
| N#CCC1(n2cc(-c3ncnc4[nH]ccc34)cn2)CN(C2CCN(C(=O)Nc3ccccc3F)CC2)C1 [Example 169, 4-{3-(cyanomethyl)-3-[4-(7H-pyrrolo[2,3-d]pyrimidin-4-yl)-1H-pyrazol-1-yl]azetidin-1-yl}-N-(2-fluorophenyl)piperidine-1-carboxamide] | 5.5 | ≤ 5 | 10 to 50 |
